Key:
Assay in all cases: differential drug sensitivity score (dDSS) relative to sarcoma reference cohort mean DSS (DSS units (0-100 scale difference)); higher = more selective sensitivity than reference sarcomas
Settings in all cases: exposure time: 72 h; concentration range: 10-10000 nM
CDS-ZH001-2 = test system: CDS-ZH001-2 (patient-derived CIC-DUX4 sarcoma tumoroid)
Method: (§1)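 Drug response profiling of patient-derived Ewing sarcoma and CIC::DUX4 sarcoma tumoroid models (or cells tested directly after isolation from the tumor, 'direct'). The DSS is the normalised AUC (0-100); dDSS is the sample DSS minus the mean DSS of a 34-sarcoma reference cohort profiled in the same lab.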

CDS-ZH001 = test system: CDS-ZH001 (patient-derived CIC-DUX4 sarcoma tumoroid)
Method: as §1

CDS-ZH002 direct = test system: CDS-ZH002 direct (CIC-DUX4 sarcoma cells right after isolation)
Method: as §1

CDS-ZH002 = test system: CDS-ZH002 (patient-derived CIC-DUX4 sarcoma tumoroid)
Method: as §1

CDS-ZH003 = test system: CDS-ZH003 (patient-derived CIC-DUX4 sarcoma tumoroid)
Method: as §1

ES-ZH001 = test system: ES-ZH001 (patient-derived Ewing sarcoma tumoroid)
Method: as §1

ES-ZH002 = test system: ES-ZH002 (patient-derived Ewing sarcoma tumoroid)
Method: as §1

ES-ZH004 = test system: ES-ZH004 (patient-derived Ewing sarcoma tumoroid)
Method: as §1

ES-ZH007 = test system: ES-ZH007 (patient-derived Ewing sarcoma tumoroid)
Method: as §1

ES-ZH008 = test system: ES-ZH008 (patient-derived Ewing sarcoma tumoroid)
Method: as §1

ES-ZH009 = test system: ES-ZH009 (patient-derived Ewing sarcoma tumoroid)
Method: as §1

ES-ZH016 direct = test system: ES-ZH016 direct (Ewing sarcoma cells right after isolation)
Method: as §1

ES-ZH016 = test system: ES-ZH016 (patient-derived Ewing sarcoma tumoroid)
Method: as §1

Row | Compound | differential drug sensitivity score (CDS-ZH001-2) | differential drug sensitivity score (CDS-ZH001) | differential drug sensitivity score (CDS-ZH002 direct) | differential drug sensitivity score (CDS-ZH002) | differential drug sensitivity score (CDS-ZH003) | differential drug sensitivity score (ES-ZH001) | differential drug sensitivity score (ES-ZH002) | differential drug sensitivity score (ES-ZH004) | differential drug sensitivity score (ES-ZH007) | differential drug sensitivity score (ES-ZH008) | differential drug sensitivity score (ES-ZH009) | differential drug sensitivity score (ES-ZH016 direct) | differential drug sensitivity score (ES-ZH016)
1 | C=CC(=O)Nc1cccc(Nc2nc(Nc3ccc(OCCOC)cc3)ncc2F)c1 [Spebrutinib] | -3.1 | -2.5 | -3.5 | -2.9 | -2.8 | 1.8 | 8.3 | 3.7 | -1.6 | 4.7 | -2 | 4.7 | -1.4
2 | CC[C@@H]1C(=O)N(C)c2cnc(Nc3ccc(C(=O)NC4CCN(C)CC4)cc3OC)nc2N1C1CCCC1 [BI-2536] | 1.7 | -0.7 | -8 | 2.2 | -10 | 21.6 | 19 | 2.9 | 6.1 | 2.3 | 19.6 | 13.4 | 17.6
3 | Clc1ccc(NN=C(c2ccccc2)c2ccccn2)nc1 [JIB04] | 0.6 | -4.4 | -4.8 | 1.4 | -2.7 | -6.1 | -6 | -4.3 | 0.7 | -2.5 | -2.6 | -0.6 | 1.5
4 | O=C(O)C(=O)O.[NH-][C@@H]1CCCC[C@H]1[NH-].[Pt+2] [Oxaliplatin] | 5.9 | 2.2 | 7.7 | 5.9 | -4.8 | -0.1 | -2 | 0.2 | 1 | 2.9 | -5 | -5 | 1.2
5 | Cc1cnc(NC(=O)Nc2cc(Br)c(C)cc2OC[C@@H]2CNCCO2)cn1 [Rabusertib] | 7.2 | 8.8 | 2.4 | 1.8 | -4.9 | 6 | 10.7 | 1.2 | 8.8 | 12.5 | 6.1 | 5.6 | 8.7
6 | CNC(=O)c1cc(Oc2ccc(NC(=O)Nc3ccc(Cl)c(C(F)(F)F)c3)cc2)ccn1 [Sorafenib] | -1 | -0.5 | -0.3 | -1.2 | -1.8 | -0.8 | -1.2 | -1.2 | -1.2 | -1.2 | 0.2 | -1.2 | -1.2
7 | CN1CCN(c2ccc3nc(-c4c(N)c5c(F)cccc5[nH]c4=O)[nH]c3c2)CC1 [Dovitinib] | 1.1 | -2.9 | -1.6 | -4 | -4 | 0.4 | 6.3 | -1.9 | -3.8 | 1.7 | 1.5 | 7.6 | -3.2
8 | Cn1cnc2c(F)c(Nc3ccc(Br)cc3Cl)c(C(=O)NOCCO)cc21 [Selumetinib] | -2 | -2 | -2 | -2 | 2.5 | -2 | -2 | -1.9 | -2 | 5.1 | -2 | -2 | -2
9 | Oc1nc(-c2ccc(C(F)(F)F)cc2)nc2c1CSCC2 [XAV-939] | 3.9 | -2.2 | 4.3 | 1.6 | 7.7 | -2.2 | -1.2 | -2.2 | -1.4 | -2.2 | -0.6 | 3.7 | 2.7
10 | C=CCn1c(=O)c2cnc(Nc3ccc(N4CCN(C)CC4)cc3)nc2n1-c1cccc(C(C)(C)O)n1 [Adavosertib] | 5.3 | 4.9 | -2.6 | 3 | 4.9 | 8.1 | 12 | 0.2 | 4 | 7.6 | 10.9 | 8.1 | 2.8
11 | CN[C@@H](C)C(=O)N[C@H](C(=O)N1CCC[C@H]1C(=O)Nc1snnc1-c1ccccc1)C1CCCCC1 [GDC0152] | 7.6 | 12.4 | 5.8 | -2.5 | 11.1 | -3.6 | 1.9 | 4.8 | -0.8 | 10.7 | 4.5 | 0.6 | -3.6
12 | CC[C@H](Nc1ncnc2[nH]cnc12)c1nc2cccc(F)c2c(=O)n1-c1ccccc1 [Idelalisib] | -1.3 | -1.4 | -1.5 | -1.4 | 2.9 | -1.5 | 1.3 | -1.5 | -1.5 | -1.5 | -1.5 | -1.5 | 1.5
13 | COc1cc(C(=O)O)ccc1NC(=O)[C@@H]1N[C@@H](CC(C)(C)C)[C@](C#N)(c2ccc(Cl)cc2F)[C@H]1c1cccc(Cl)c1F [Idasanutlin] | 8.5 | 4 | 10 | 1.9 | 12 | -13.6 | 23 | -13.6 | -13.6 | 19.1 | -13.6 | 15.1 | 6.4
14 | COc1cc2nc(N3CCCN(C)CC3)nc(NC3CCN(Cc4ccccc4)CC3)c2cc1OC | 4 | 0.2 | 1.5 | -1.1 | 4 | 0.7 | 0 | 6.4 | 7.4 | 1.2 | -0.4 | 3.9 | -0.1
15 | C[C@@H]1COCCN1c1cc(C2([S@](C)(=N)=O)CC2)nc(-c2cc[nH]c3nccc2-3)n1 [Ceralasertib] | 0.7 | 0 | -2.5 | -0.4 | -4.4 | 5.9 | 12 | 5.7 | 3 | 9.7 | 2.1 | 13.8 | 4.5
16 | CN(C)C/C=C/C(=O)Nc1ccc(C(=O)Nc2cccc(Nc3ncc(Cl)c(-c4c[nH]c5ccccc45)n3)c2)cc1 [THZ1] | 6.7 | 0 | 9.2 | 0.9 | -8.9 | 4.2 | 4.3 | 11.4 | 0.1 | 8.6 | 7.4 | 9 | 10.2
17 | COc1cc(Nc2ncc3c(n2)-c2ccc(Cl)cc2C(c2c(F)cccc2OC)=NC3)ccc1C(=O)O [Alisertib] | 5.5 | -3.4 | -7.3 | -3.7 | -0.9 | 20 | 21.5 | -11.3 | 8.5 | 8.2 | 15.8 | 17.2 | 15.3
18 | COC1=CC(c2cc3ccccc3[nH]2)=N/C1=C\c1[nH]c(C)cc1C [Obatoclax] | -0.2 | -3.8 | 4.4 | -2.4 | -3 | -0.7 | 2.9 | 6.9 | 7.5 | 4 | 1.5 | 3.3 | 2.1
19 | COc1cccc2c1C(=O)c1c(O)c3c(c(O)c1C2=O)C[C@@](O)(C(=O)CO)C[C@@H]3O[C@H]1C[C@H](N)[C@H](O)[C@H](C)O1 [Doxorubicin] | 10.6 | 3.1 | 3.1 | 4.7 | 5 | 6.8 | 20.9 | -3.3 | -10.2 | -0.7 | 15.7 | 11 | 12.8
20 | O=C(Cc1ccc(-c2ccc(OCCN3CCOCC3)cc2)cn1)NCc1ccccc1 [Tirbanibulin] | 1.4 | 8.2 | 1.7 | 4 | -7.7 | 9.3 | 13.5 | 5.9 | 4.5 | 6.4 | 10.5 | 7.2 | 11.4
21 | Nc1nc(Cl)nc2c1ncn2[C@@H]1O[C@H](CO)[C@@H](O)[C@@H]1F [Clofarabine] | -1.8 | -12 | -4.3 | -4.3 | -4.8 | 17.7 | 20.2 | 4.8 | 19 | 3.6 | 3.9 | 8.4 | 15.7
22 | CNC(=O)Nc1ccc2c(c1)CC[C@@]21OC(=O)N(CC(=O)N(Cc2ccc(F)cc2)[C@@H](C)C(F)(F)F)C1=O [A-485] | -2.1 | 8.4 | 6.8 | 6.8 | 22.3 | 4.6 | 5.2 | -3.4 | 2.9 | 1.4 | 2.6 | -5.4 | -4
23 | CCN(CC)CCNC(=O)c1c(C)[nH]c(/C=C2\C(=O)Nc3ccc(F)cc32)c1C [Sunitinib] | 3.9 | 3.2 | -2 | -1.4 | -3.3 | 7.6 | 8.5 | 2.3 | 2.2 | -0.8 | 1.7 | 6.4 | 0.7
24 | Cc1[nH]c2ccccc2c1CCNCc1ccc(/C=C/C(=O)NO)cc1 [Panobinostat] | 4.9 | -2.7 | 2 | -1.1 | -3.6 | 3.6 | 4 | 5.4 | 6.3 | 6.6 | 10.3 | 7.4 | 6.6
25 | CN(Cc1cnc2nc(N)nc(N)c2n1)c1ccc(C(=O)N[C@@H](CCC(=O)O)C(=O)O)cc1 [Methotrexate] | -10.9 | 0 | -10.4 | -4.9 | -14 | 11.6 | -0.6 | -9.9 | -3.6 | -6.2 | 21.6 | -5.4 | 4.4
26 | Cn1ncnc1[C@H]1c2n[nH]c(=O)c3cc(F)cc(c23)N[C@@H]1c1ccc(F)cc1 [Talazoparib] | 8.2 | -1.8 | -2.2 | -5.9 | 0.3 | 26.5 | 28.8 | 21.6 | 25.9 | 24.9 | 11.3 | 18.1 | 24.4

Reference: the supplement of paper PMC12370961
